Like-named read-outs stand apart in the source and are kept apart here.
Assays:
[1] = system: MDA-MB-231 cells; assay: Cell anti-proliferation / toxicity assay (CCK-8), MDA-MB-231; type: cell-based
Description: Initial tests designed around assessing whether a synergistic effect would be observed in real when a combination of G9a inhibitor and HDAC inhibitor used in conjunction.
Cell anti-proliferation assays were performed to determine the toxicity of these inhibitors. Several cell lines (MDA-MB-231, MCF-7 and A549) were incubated and then treated with varying concentrations of the inhibitors for 72 h, respectively. […] These compounds were further evaluated against the control cell line HEK293 to test their toxicity with a non-cancerous cell line.
A549, MDA-MB-231, MCF-7 and HEK293 cells were seeded at 8000-10000 cells (100 μl) in white 96-well plates and pre-incubate the plate for 24 h under standard cell culture conditions, respectively. And then the cells were exposed to the different inhibitors with various concentrations for 72 h. Finally, 10 μl of CCK-8 kit solution was added to each well and incubated for 3-4 hours under standard cell culture conditions, and the 96 well plates were measured the absorbance at 450 nm using Perkin–Elmer Wallac Victor ^3V 1420 multi label plate reader (Perkin–Elmer, Wellesley, USA). EC50s were calculated using GraphPad Prizm statistical package with sigmoidal variable slope dose response curve fit.

[2] = system: MCF-7 cells; assay: Cell anti-proliferation / toxicity assay (CCK-8), MCF-7; type: cell-based
Description: (§1) Cell anti-proliferation assays were performed to determine the toxicity of these inhibitors. […] These compounds were further evaluated against the control cell line HEK293 to test their toxicity with a non-cancerous cell line.
(§2) And then the cells were exposed to the different inhibitors with various concentrations for 72 h. […] EC50s were calculated using GraphPad Prizm statistical package with sigmoidal variable slope dose response curve fit.

[3] = target: T1, Mouse histone methyltransferase G9a (969-1263) (Mus musculus, UniProt Q9Z148); assay: MALDI-TOF methylation study of G9a enzymatic activity (H3 peptide, SAM); type: biochemical; details: Supplementary Table 1; inhibitor 5 μM, 30 min; average of 3 values
T1 construct: The 6His-sumo mG9a (969-1263) protein was purified using the following procedure; 6His-sumo (N, cleaved yes); made in house; host or cells: Escherichia coli BL21 (DE3)
T1 sequence (Q9Z148 969-1263): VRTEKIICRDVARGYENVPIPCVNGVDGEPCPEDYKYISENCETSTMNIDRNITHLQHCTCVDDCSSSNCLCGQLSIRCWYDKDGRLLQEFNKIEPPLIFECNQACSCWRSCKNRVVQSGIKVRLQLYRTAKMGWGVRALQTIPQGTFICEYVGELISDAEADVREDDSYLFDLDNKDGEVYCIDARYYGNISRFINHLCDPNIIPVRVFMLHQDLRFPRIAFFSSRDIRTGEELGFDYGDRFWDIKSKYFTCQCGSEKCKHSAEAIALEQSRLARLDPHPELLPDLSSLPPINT
Description: Figure 3 compounds were synthesized from the commercially available starting material 1. An initial displacement reaction using a primary amine was used to introduce the C4 selective substitution, with the second displacement to introduce the linker at the C2 position following the microwave assisted reaction previously reported. Boc-protected ethylene diamine was treated with compound 2 at 160°C in a microwave for 10 min to yield product 3 with excellent yield. Afterward, the amine 3 was deprotected with TFA/DCM, and the free amine was treated with corresponding monomethyl esters (carbon chain 2-6) in the presence of coupling reagent EDCI and HOBt for about 8 hours to produce mono methyl ester substituted at the C2 position. The ester compounds further treated with hydroxylamine in water to get the corresponding hydroxamic acid derivatives, which were purified using reverse phase flash chromatography to obtain compounds 4-7 and 4a-7a in good yield. Synthesis of compounds in Figure 4 requires the C6 demethoxy core, and this was synthesized according to the reported procedure to yield 10 [45]. […] Compounds with the HDAC pharmacophore at the C4 position (Figure 2B) were synthesized from the starting material 1. […] A parallel synthesis and testing strategy were used in establishing the primary SAR, with the clear rationalization of the structure and activity at each stage we could reduce the synthetic targets. Initially, we evaluated the G9a potential after the introduction of HDAC pharmacophore. A biochemical assay using MALDI-TOF was used to visualize the effects of the synthesized compounds on G9a enzymatic activity, we carried out a biochemical reaction involving target enzyme G9a, methyl donor SAM and substrate H3 peptide at a concentration of 400 nM, 10 μM and 5 μM respectively.
Mouse histone methyltransferase G9a (969-1263) cDNA was amplified from the cDNA of BALB/c mouse thymus, and the fragment was sub-cloned into a vector with a 6His-sumo tag. The mouse G9a (mG9a) was expressed in Escherichia coli BL21 (DE3) by the addition of 1 mM isopropyl-1-thio-D-galactopyranoside (IPTG) and incubated overnight at 16°C.
The in vitro inhibition of G9a by the synthesized compounds were measured by MALDI-TOF mass spectrum (Bruker MALDI TOF/TOF Analyzer). 400 nM purified G9a, 5 μM synthesized histone H3 (1-21) and 10 μM non-radioactive S-adenosyl methionine (Sigma) were added in reaction buffer (50 mM HEPES pH 8.0, 5 μg/ml BSA and 0.1% β-Mercaptoethanol) with or without inhibitors (5 μM). The reaction was incubated at room temperature for 30 min, and stopped by TFA. 1 μl of the sample was mixed with CHCA matrix and m/z peaks were obtained at reflection positive mode. The results of mass spectrum were analyzed using the Bruker flex analysis software, a detailed description of data processing is provided as supplementary information (S3).
[…]
MALDI spectrums were collected using Bruker flex % conversion to product is also C, from this to get the control software and analyzed by flex analysis. After %maximal activity (%MA), C was compared to the % labelling each cluster peaks of H3K9Me0, H3K9Me1 conversion when no inhibitor was used (D). and H3K9Me2 for all of the tested concentrations, area Finally % inhibition was found by subtracting under the cluster (AUC) were extracted by using the same %MA from 100 […]
flex analysis software. % abundance of each peak was Example: % methylation levels and % inhibition calculated by following formula, when used 5 μM compound 14
A = % Abundance of (H3K9Me0) = area of A = 13.09
B = % Abundance of (H3K9Me1) = area of % conversion when no inhibitor was used D = 84.43 H3K9Me1/ (area of H3K9Me0+area of H3K9Me1 + area (average of six measurements) […]

[4] = system: HDAC; assay: Homogeneous cellular histone deacetylase assay, Hela; type: cell-based, human; details: Supplementary Table 2; NA = not active up to highest concentration tested (100 μM); >100 = IC50 not reached at 100 μM; read-out: IC50-HDAC Hela
Description: (§3) The enzymatic activity of HDAC was measured in intact cells using the homogeneous cellular assay method. A cell-permeable peptide Boc-K(Ac)-AMC used as the HDAC substrate, after deacetylation it is cleaved by trypsin to release the fluorescent 7-amino-4-methylcoumarin (AMC) and further quantified.
(§4) The manual assay was developed by Thomas's group. […] After 24 h, 9 μl inhibitors with different concentration were added to the HeLa cells and incubation was continued for 3 h under cell culture conditions. After this treatment period, 10 μl of a 2 mM stock solution of the substrate Boc-K(Ac)-AMC was added into the 96 well plates with Hela cells and inhibitors. […] A549 and K562 cell lines used the same method, respectively. IC50s were calculated using GraphPad Prizm statistical package with sigmoidal variable slope dose response curve fit.

[5] = system: HDAC; assay: Homogeneous cellular histone deacetylase assay, K562; type: cell-based, human; details: Supplementary Table 2; NA = not active up to highest concentration tested (100 μM); >100 = IC50 not reached at 100 μM; read-out: IC50-HDAC K562
Description: as §3, §4

[6] = system: HDAC; assay: Homogeneous cellular histone deacetylase assay, A549; type: cell-based, human; details: Supplementary Table 2; NA = not active up to highest concentration tested (100 μM); >100 = IC50 not reached at 100 μM
Description: as §3, §4

[7] = system: A549 cells; assay: Cell anti-proliferation / toxicity assay (CCK-8), A549; type: cell-based; details: Homo sapiens, Table 6, 72 h, >100 = not reached at highest tested concentration (100 μM)
Description: as §1, §2

[8] = system: HEK293 cells; assay: Cell anti-proliferation / toxicity assay (CCK-8), HEK293 normal cell line; type: cell-based; details: Homo sapiens, Table 6, 72 h
Description: as §1, §2

[9] = Homo sapiens, MDA-MB-231, Supplementary Table 4, 72 h, CCK-8, >100 = not reached at 100 μM, read-out: EC50 MDA-MB-231
[10] = Homo sapiens, MCF7, Supplementary Table 4, 72 h, CCK-8, >100 = not reached at 100 μM, read-out: EC50 MCF-7
[11] = Homo sapiens, MDA-MB-231, Table 6, 72 h, CCK-8, mean ± SD of triplicates, read-out: EC50 MDA-MB-231
[12] = Homo sapiens, MDA-MB-231, read-out: EC50, MDA-MB-231 (combination study)

| Compound | EC50 [1, 9] | EC50 [2, 10] | inhibition at 5 µM [3] | further results |
| --- | --- | --- | --- | --- |
| COc1cc2nc(NCCNC(=O)CCCCC(=O)NO)nc(NC3CCN(C)CC3)c2cc1OC [Compound 6, N1-(2-((6,7-dimethoxy-4-((1-methylpiperidin-4-yl)amino)quinazolin-2-yl)amino)ethyl)-N6-hydroxyadipamide] | > 100 µM | > 100 µM | 26.6 ± 11.3% | – |
| CN1CCCN(c2nc(NC3CCN(Cc4ccccc4)CC3)c3ccc(OCCCCCCCC(=O)NO)cc3n2)CC1 [Compound 30, 8-((4-((1-benzylpiperidin-4-yl)amino)-2-(4-methyl-1,4-diazepan-1-yl)quinazolin-7-yl)oxy)-N-hydroxyoctanamide] | – | – | – | EC50 ([1]; Supplementary Table 4, 72 h, CCK-8, >100 = not reached at 100 μM, read-out: EC50 MDA-MB-231): 24 ± 3.64 µM; EC50 ([2]; Supplementary Table 4, 72 h, CCK-8, >100 = not reached at 100 μM, read-out: EC50 MCF-7): > 100 µM |
| COc1ccc2c(NCCNC(=O)CCCCCCC(=O)NO)nc(N3CCCN(C)CC3)nc2c1 [Compound 21, N1-hydroxy-N8-(2-((7-methoxy-2-(4-methyl-1,4-diazepan-1-yl)quinazolin-4 yl)amino)ethyl)octanediamide] | > 100 µM | > 100 µM | 22.8 ± 26.7% | IC50 [4]: > 100 µM; IC50 [5]: > 100 µM; IC50 [6]: > 100 µM |
| COc1cc2nc(NCCNC(=O)CCCCCC(=O)NO)nc(NC3CCN(C)CC3)c2cc1OC [Compound 5, N1-(2-((6,7-dimethoxy-4-((1-methylpiperidin-4-yl)amino)quinazolin-2-yl)amino)ethyl)-N7-hydroxyheptanediamide] | > 100 µM | > 100 µM | 65 ± 1.95% | – |
| COc1cc2c(NC3CCN(C(C)C)CC3)nc(N3CCCN(C)CC3)nc2cc1OCCCCCCC(=O)NO [Compound 26, N-hydroxy-7-((4-((1-isopropylpiperidin-4-yl)amino)-6-methoxy-2-(4-methyl-1,4-diazepan-1-yl)quinazolin-7-yl)oxy)heptanamide] | 31.3 ± 3.3 µM | > 100 µM | – | – |
| O=C(CCCCCCC(=O)Nc1ccccc1)NO [SAHA, reference compound] | – | – | – | EC50 [1, 11]: 2.87 ± 0.84 µM; EC50 [1, 12]: 2.87 ± 0.84 µM |
| COc1cc2nc(NCCNC(=O)CCCCC(=O)NO)nc(NC3CCN(C(C)C)CC3)c2cc1OC [Compound 6a, N1-hydroxy-N6-(2-((4-((1-isopropylpiperidin-4-yl)amino)-6,7-dimethoxyquinazolin-2-yl)amino)ethyl)adipamide] | > 100 µM | > 100 µM | 50.6 ± 16.5% | – |
| COc1cc2nc(N3CCCN(C)CC3)nc(NC3CCN(Cc4ccccc4)CC3)c2cc1OC [BIX-01294, reference compound] | – | – | 77.7 ± 5.73% | EC50 [1, 11]: 2.16 ± 0.88 µM; EC50 [1, 12]: 2.16 ± 0.88 µM; EC50 ([2]; Homo sapiens, MCF7, Table 6, 72 h, CCK-8, mean ± SD of triplicates, read-out: EC50 MCF-7): 8.1 ± 1.99 µM; EC50 ([2]; Homo sapiens, MCF7, read-out: EC50, MCF-7 (combination study)): 8.1 ± 1.99 µM; EC50 [7]: 21.7 ± 2.73 µM; EC50 [8]: 2050 ± 980 nM |
